Assay results taken from US20170112182A1 (Next Generation Labs, LLC, priority 2015, published 2017).

Assays:
[1] = vaping study with 10 subjects rating throat feel and head feel dynamics; type: in vivo, human
Text: In rating the head feel dynamics and throat feel of the different compositions, the subjects used the following criteria: […]

α4β2 nAChRs = α4β2 nAChRs (Homo sapiens, UniProt P17787+P43681); type: cell-based
α7 nAChRs = α7 nAChRs (Homo sapiens, UniProt P36544); type: cell-based
α7 nAChRs, sequence (P36544 23-502): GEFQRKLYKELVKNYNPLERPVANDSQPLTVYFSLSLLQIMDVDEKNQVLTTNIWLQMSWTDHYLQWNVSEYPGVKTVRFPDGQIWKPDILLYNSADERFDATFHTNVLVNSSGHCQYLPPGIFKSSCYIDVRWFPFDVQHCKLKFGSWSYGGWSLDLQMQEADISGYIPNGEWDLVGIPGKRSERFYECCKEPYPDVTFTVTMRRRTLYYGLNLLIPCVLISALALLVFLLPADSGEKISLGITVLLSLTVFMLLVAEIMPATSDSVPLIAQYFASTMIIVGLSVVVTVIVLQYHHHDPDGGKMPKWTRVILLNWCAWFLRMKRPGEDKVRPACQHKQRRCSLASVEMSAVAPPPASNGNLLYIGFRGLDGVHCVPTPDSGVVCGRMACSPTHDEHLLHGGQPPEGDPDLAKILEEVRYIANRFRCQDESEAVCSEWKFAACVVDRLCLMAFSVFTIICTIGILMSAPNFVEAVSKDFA

α4β2 nAChRs, sequence (P43681 29-627 limits assumed): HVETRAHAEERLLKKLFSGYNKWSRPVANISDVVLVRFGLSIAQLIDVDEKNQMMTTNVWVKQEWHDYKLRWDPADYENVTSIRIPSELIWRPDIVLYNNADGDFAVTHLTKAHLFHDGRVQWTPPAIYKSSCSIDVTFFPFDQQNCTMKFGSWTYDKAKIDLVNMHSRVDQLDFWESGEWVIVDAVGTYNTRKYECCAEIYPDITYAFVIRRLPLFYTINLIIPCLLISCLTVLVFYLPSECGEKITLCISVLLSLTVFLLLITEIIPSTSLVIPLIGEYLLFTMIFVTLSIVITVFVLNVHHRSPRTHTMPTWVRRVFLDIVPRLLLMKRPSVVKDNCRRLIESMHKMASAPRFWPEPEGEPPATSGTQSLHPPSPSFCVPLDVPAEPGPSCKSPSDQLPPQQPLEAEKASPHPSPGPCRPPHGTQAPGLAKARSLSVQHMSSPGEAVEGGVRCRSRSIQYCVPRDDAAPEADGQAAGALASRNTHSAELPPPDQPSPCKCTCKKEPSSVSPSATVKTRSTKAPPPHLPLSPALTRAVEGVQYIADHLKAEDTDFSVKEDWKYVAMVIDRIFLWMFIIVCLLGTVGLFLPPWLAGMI
α4β2 nAChRs, sequence (P17787 26-502): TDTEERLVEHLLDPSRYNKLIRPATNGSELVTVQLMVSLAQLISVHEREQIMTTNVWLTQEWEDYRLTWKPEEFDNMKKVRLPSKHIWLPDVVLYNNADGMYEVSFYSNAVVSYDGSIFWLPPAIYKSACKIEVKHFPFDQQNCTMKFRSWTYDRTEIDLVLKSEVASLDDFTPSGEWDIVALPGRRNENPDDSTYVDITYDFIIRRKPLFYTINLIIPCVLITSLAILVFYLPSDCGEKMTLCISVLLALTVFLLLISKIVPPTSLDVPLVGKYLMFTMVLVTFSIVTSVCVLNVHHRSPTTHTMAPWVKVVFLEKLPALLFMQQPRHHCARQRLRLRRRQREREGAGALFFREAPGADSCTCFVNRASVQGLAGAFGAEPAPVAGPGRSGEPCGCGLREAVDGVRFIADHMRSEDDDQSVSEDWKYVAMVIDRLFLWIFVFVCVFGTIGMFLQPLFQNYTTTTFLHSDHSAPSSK

| Structure (SMILES) | Head Feel Dynamics compared with tobacco-derived counterpart ([1]; 0.3% loading level) | Head Feel Dynamics compared with tobacco-derived counterpart ([1]; 0.6% loading level) | agonist character in words (α4β2 nAChRs) | agonist character in words (α7 nAChRs) |
| --- | --- | --- | --- | --- |
| CN1CCCC1c1cccnc1 (racemic) [Synthetic RS racemic nicotine, RS-Nicotine] | slightly less effect | slightly less effect |  |  |
| CN1CCC[C@@H]1c1cccnc1 [Synthetic R nicotine, R nicotine] |  |  | partial agonist | full, weak agonist |
| CN1CCC[C@H]1c1cccnc1 [Synthetic S nicotine, S-nicotine] | same (within experimental error) | same (within experimental error) |  |  |
